Where two headings read alike, the source gives them in different places.

A short description of data set [1]: UV absorbance spectra in protonated and deprotonated form (different pH, or before and after HCl). It is filed as physicochemical. Conditions: FIGS. 1 to 4. The text has this:
Methods to determine if a given sunscreen agent measurably changes its absorbance of UV radiation upon protonation or deprotonation will be readily available to the skilled person, but include a method summarised by the following steps. First, identify a suitable solvent for said sunscreen agent. Such a solvent may be hydrophilic (eg water or glycerine) organic/protic (eg ethanol, isopropanol or octanol), organic/polar aprotic (eg DMSO, acetonitrile or dichloromethane) or organic/unipolar (eg hexane, hexadecane or diethylether). Second, record the UV-Visible (200 nm-800 nm) absorbance spectra of a solution of the sunscreen agent using a suitable photospectrometer (such as a Beckmann DU-640 Spectrometer as described in the examples herein). Third, take an aliquot of the sunscreen UV filter solution and add a strong acid (eg trifluoroacetic acid, or hydrochloric acid, or perchloric acid) and record its UV-Visible absorbance spectra. Neutralize with a base (see next step) to check for reversibility and record the UV-Visible absorbance spectra again. Fourth, take another aliquot of the sunscreen UV filter solution and add a strong base (eg NaOH, KOH, Triethylamine, Tris(hydroxymethyl)aminomethane (TRIS)) and record its UV-Visible absorbance spectra. Neutralize with an acid (see previous step) to check for reversibility and record the resulting UV-Visible absorbance spectra. Fifth, repeat the above steps with (a) more than one acid, (b) more than one base and (c) more than one solvent to exclude artifacts from specific UV-filter-ion interactions, or specific UV-filter-solvent interactions. Conclusion: measureable changes in UV absorbance that are observed in one or more of such repeat experiments for a give sunscreen agent identify that such sunscreen agent is a suitable sunscreen agent for use in the context of the present invention.
The pH was adjusted with NaOH/HCl in aqueous solution.

A short description of data set [2]: Predicted SPF calculated from absorption spectra. It is filed as physicochemical. The text has this:
Predicted SPFs can be accurately determined from absorption spectra using standardized calculations based on the erythemal action spectrum, and such predicted SPFs correlate very well with in vivo determined SPFs. Corresponding algorithms for calculating SPF values are known in the art and corresponding computer programs are available; see, for example, http://www.sunscreensimulator.basf.com/Sunscreen_Simulator. Using the absorption spectrum shown in FIG. 2, the predicted SPF of a composition containing the deprotonated form of Padimate-O is approximately 10-fold higher than that of a composition containing the protonated form. With Benzophenone-4 (FIG. 1), the protonated form provides a composition having approximately 3 times the SPF as a composition containing the deprotonated form.

For data set [3] the following is noted: excited state after light absorption; cited from earlier work.
For data set [4] the following is noted: cited from earlier work.

Take `Nc1ccc(C(=O)O)cc1` [PABA, p-aminobenzoic acid]: in data set [1], the “effect of protonation state on UV absorption” value (shortened to “effect of protonation state”) is recorded as “absorbs less UV radiation”.

On to `COc1cc(O)c(C(=O)c2ccccc2)cc1S(=O)(=O)O` [Benzophenone-4], for which the “SPF of composition with protonated form relative to deprotonated form” value in data set [2] (from absorption spectra of FIG. 1 (ethanol/water, pH 5 to 12)) is “approximately 3 times”. Besides, in data set [1], the “effect of protonation state” value is reported as “protonated state being the from that absorbs more UVB radiation”.

Turning to `Oc1cccc2ccccc12` [Example 1-naphthol, 1-naphthol], in data set [3], the “pKa in the excited state” value is recorded as 0.4.

For `CCCCC(CC)COC(=O)c1ccc(N(C)C)cc1` (stereo not drawn) [Padimate-O, Ethylhexyl Dimethyl PABA], the “predicted SPF of composition with deprotonated form relative to protonated form” value in data set [2] (from absorption spectrum of FIG. 2 (acetonitrile, before/after equimolar HCl)) is on record as “approximately 10 fold”. In addition, the “effect of protonation state” value in data set [1] is listed as “shifts the absorption maximum of padimate-O from the UVB region to UVC”.

Regarding `COc1ccc(C(=O)c2ccccc2)c(O)c1` [oxybenzone], the oxybenzone degraded entry was “about 70%” in data set [4] (irradiation of oxybenzone and titanium dioxide, after 20 min of UV exposure); 50% in data set [4] (solution containing oxybenzone alone, after 260 min).

Consider `CCCCCCOC(=O)c1ccccc1C(=O)c1ccc(N(CC)CC)cc1O` [2-(4-diethylamino-2-hydroxybenzoyl)-benzoic acid hexylester], for which, in data set [1], the “effect of protonation state” value is “largely inactive in its protonated form”.

The record behind these values is US20120148647A1, “Photoresponsive Sunscreen Composition” (Blueshift Pharma GmbH, priority 2009, published 2012).
